Test system: Fisher 344 rats fed a choline-deficiented, L-amino acid-defined (CDAA) diet (animal model for fatty liver)
Test: CDAA diet rat model for fatty liver: liver staining for lipid droplets and serum triglyceride
Assay type: in vivo
Procedure: Fisher 344 rats were fed only a general diet or a choline-deficiented, L-amino acid-defined (CDAA) diet to prepare a control group and a CDAA group as an animal model for fatty liver, respectively. Three medicament-treated groups were prepared by administering the following three medicaments to the CDAA groups every day. (Aspirin and ticlopidine are medicaments having the same platelet aggregation inhibitory action as cilostazol.)
In addition, the amount of triglyceride in the liver as well as the serum level of triglyceride in those rats were measured.

O=C1CCc2cc(OCCCCc3nnnn3C3CCCCC3)ccc2N1 [cilostazol, 6-[4-(1-cyclohexyl-1H-tetrazol-5-yl)butoxy]-3,4-dihydrocarbostyril]
lipid droplet of liver (Hematoxylin-eosin staining and Masson staining) (CDAA diet + 6 mg/kg every day for 6 weeks, compared with CDAA group without cilostazol and with aspirin (5 mg/kg) / ticlopidine (10 mg/kg) groups, FIG. 1-9): markedly less
serum level of triglyceride (CDAA diet + 6 mg/kg every day, 6 weeks after start of administration, compared with control group and other medicaments-treated groups, FIG. 10): significantly lower
